The values that follow come from patent publication US20250075155A1, “Use of Vanillyl Ethers to Modify Flavor of Distilled Spirits” (Firmenich Incorporated, priority 2021, published 2025).

A short description of the test: Sensory testing of unaged grain neutral spirit with vs without VEE (qualitative, taste testers). How it is done: Sensory testing was performed comparing two samples of unaged grain neutral spirit (20% alcohol by volume), where one sample contained no vanillyl ether compounds and the other sample contained 4-(ethoxy methyl)-2-methoxyphenol (vanillyl ethyl ether or VEE) at a concentration of 5 ppm. The taste testers were asked to describe the differences between the two samples on a qualitative basis.
Sensory testing was performed comparing two samples of unaged grain neutral spirit (20% alcohol by volume), where one sample contained no vanillyl ether compounds and the other sample contained 4-(ethoxymethyl)-2-methoxyphenol (vanillyl ethyl ether or VEE) at a concentration of 25 ppm. The taste testers were asked to describe the differences between the two samples on a qualitative basis.

Where [1] appears, read: VEE 5 ppm in unaged grain neutral spirit (20% ABV), relative to control sample.
Where [2] appears, read: VEE 25 ppm in unaged grain neutral spirit (20% ABV), relative to control sample.

Turning to `CCOCc1ccc(O)c(OC)c1` [VEE, 4-(ethoxymethyl)-2-methoxyphenol], under setting [1], the Bitterness entry was “All taste testers identified the test sample as having a less bitter”, the “Overall Taste” value is given as “All taste testers identified the test sample as having a better overall”, the Smoothness/Balance/Roundness entry is given as “All taste testers identified the test sample as having greater” and the “Smoothness/Balance/Roundness: taste characteristic of an aged spirit” value is recorded as “test sample as having a taste more characteristic of an aged spirit”. In addition, under setting [1], the Sweetness result is “sweeter taste”. Moreover, the Smell result (VEE 5 ppm in unaged grain neutral spirit (20% alcohol by volume), relative to control sample without vanillyl ether) is reported as “sample (containing VEE) as having a slight rum-like smell relative”. Besides, under setting [2], the Bitterness result is listed as “All taste testers identified the test sample as having a less bitter”, the “Overall Taste” value is “All taste testers identified the test sample as having a better”, the Smoothness/Balance/Roundness entry is reported as “All taste testers identified the test sample as having greater” and the Sweetness result is reported as “sweeter taste”. For the same compound, under setting [2], the Tingling/Heat entry is “increased tingling/hot perception very similar to ethanol profile” and the “Tingling/Heat: alcohol perception” value is “while significantly increasing the alcohol perception; taste like”.
